How the values were obtained:
[1] = system: oxaliplatin induced peripheral neuropathy; test: Reversal of allodynia induced by oxaliplatin in mice (von Frey frequency method); assay type: in vivo, c57bl/6 mice; conditions: tested 30 min after dosing
Method: Compounds were tested for efficacy in mouse models of chemotherapy induced peripheral neuropathy. […] For these studies […]/6 mice are habituated to the test environment and baseline measurements of pain sensitivity are assessed. To determine mechanical responses, the threshold for responses to punctate mechanical stimuli (mechanical hyperalgesia) was tested according to the frequency method. In brief, the plantar surface of the animal hindpaw was stimulated with a single von Frey monofilament (0.4 g) for approximately 1-2 seconds. If there was a withdrawal response, it was recorded as a positive response. A response was defined as a lifting or shaking of the paw upon stimulation. This was repeated ten times for each mouse. The final measurement for each mouse is the % non-response to stimulation for the ten trials. The % non-response to stimulation is converted to a % MPE. For paclitaxel induced peripheral neuropathy, a series of injections of PAC (6 mg/kg, i.p.) on days 1, 3, 5 and 7 is used to induce peripheral neuropathy. After approximately 14 days from the initiation of PAC injections, animals are re-assessed for mechanical sensitivity. […] On test day animals are dosed with compounds either subcutaneously or orally and tested for mechanical response by the frequency method either 30 min (s.c.) or 60 min (p.o.) after drug administration. Data is presented as a % MPE. For oxaliplatin induced peripheral neuropathy, a series of injections of OXA (4 mg/kg, i.p.) on days 1-5 is used to induce peripheral neuropathy. After approximately 14 days from the initiation of PAC injections, animals are re-assessed for mechanical sensitivity. […] On test day animals are dosed with compounds subcutaneously and tested for mechanical response by the frequency method 30 min after drug administration. Data is presented as a % MPE. One or more of the compounds show reversal of chemotherapeutic induced peripheral neuropathy.

[2] = system: Freund's Complete Adjuvant induced inflammation / mechanical allodynia; test: Tactile allodynia produced by intraplantar Freund's Complete Adjuvant in rats (Randall-Selitto); assay type: in vivo, rat; conditions: CFA model, 24 hours after CFA
Method: Animals were acclimated to the vivarium for at least 48 hr prior to behavioral testing. Inflammation was induced with the administration of an intraplantar (subcutaneous injection into the plantar surface of the hind paw, i.pl.) injection of 0.10 ml Freund's Complete Adjuvant (FCA). The experiments were conducted 24 hours after CFA administration. Rats are tested for mechanical allodynia in a Randall-Selitto apparatus. The inflamed paw is put on a pedestal and a pointed force of increasing intensity (0 to 250 grams) is applied to the paw. When the animal struggles to withdraw from the force the test is stopped and the force to induce that struggle is recorded. Data is presented as mean grams of force to withdrawal or a percentage of the maximum possible effect.

[3] = system: spinal nerve ligation peripheral neuropathy; test: Tactile allodynia and thermal hyperalgesia in spinal nerve ligation (SNL) peripheral neuropathy model; assay type: in vivo, Sprague Dawley rats
Method: A cohort of 48 male Sprague Dawley rats, weighing 225-250 g at arrival, was group housed under constant temperature, humidity and a 12-hour light-dark cycle. Following acclimation to the animal colony, the animals were tested for baseline withdrawal responses to mechanical allodynia and thermal hyperalgesia using the methods described in. Chaplan, S. R., Bach, […]., Chung, J. M. and Yaksh, T. L. Quantitative assessment of tactile allodynia in the rat paw. J. Neurosci. Methods 53: 55-63, 1994; Joris, J. L., Dubner, R. and Hargreaves, K. M. Opioid analgesia at Peripheral Sites: a Target for Opioids Released during Stress and Inflammation? Anesthesia and Analgesia 66(12), 1277-81, 1987; and Kim, S. H. and Chung, J. M. An experimental model of peripheral neuropathy produced by segmental spinal nerve ligation in the rat. Pain 50: 335-63, 1992. […] Thermal hyperalgesia was measured at 1 or 1.5 hr after dosing of test articles, vehicle, and reference compound via the specified route(s) on Day 21. […] The time was measured automatically when the paw was withdrawn away from the thermal stimulus. […] Mean thresholds and withdrawal latencies were analyzed via Two Way ANOVA followed by Dunnett's Multiple Comparison tests to SNL+VEH group with differences considered significant at p<0.05.

[4] = system: A2780 human ovarian carcinoma; test: A2780 human ovarian carcinoma xenograft tumor growth delay in athymic nude mice; conditions: 60-day study
Method: Female athymic nude mice (Crl:NU(NCr)-Foxnlnu, Charles River Laboratories) were implanted with A2780 human ovarian carcinoma cells to initiate tumor growth.
Each mouse received 1×10^7 cells (0.1 mL cell suspension) subcutaneously in the right flank, and tumors were monitored as their volumes approached the target range of 100 to 150 mm3. Fourteen days later, designated as Day 1 of the study, mice were sorted into six groups of ten each. […] Tumors were measured twice weekly for the study duration.
Starting on Day 1 of the study, six groups (n=10) of female athymic nude mice with established A2780 tumors were treated according to the following plan. Treatments were administered either by intravenous injection (i.v.) or oral gavage (p.o.) and were adjusted to the body weight of the individual animal. Group 1 received Vehicle 1, i.v., once every other day for five doses (qod×5) and Vehicle 2, p.o., once daily to the end of the study (qd to end), and served as the control group for efficacy analysis. Group 2, the paclitaxel monotherapy group, received paclitaxel i.v., qod×5 plus Vehicle 2, p.o., qd to end. Group 3, the ozanimod monotherapy group, received ozanimod p.o., qd to end plus Vehicle 1, i.v., qod×5. Combination Group 4 received ozanimod p.o., qd to end plus paclitaxel i.v., qod×5.
Animals were monitored individually, and each mouse was euthanized when its tumor reached the endpoint volume of 2000 mm3 or on the final day, whichever came first. The time to endpoint (TTE) was calculated for each mouse. Treatment outcome was determined from percent tumor growth delay (% TGD), defined as the percent increase in median TTE for treated versus control mice, with differences in TTE values between groups deemed statistically significant at P<0.05 using logrank survival analysis. Mice were also monitored for complete regression (CR) and partial regression (PR) responses. An animal with a CR at the end of the study was additionally classified as a tumor-free survivor (TFS). Treatment tolerability was assessed by body weight measurements and frequent observation for clinical signs of treatment-related side effects.

SMILES | Active Doses, mg/kg sc (>50% MPE) [2] [mg/kg] | other results
COc1ccccc1-c1nc(-c2ccc3c(c2)nnn3C(C)C)no1 [Compound 287, 3-(1-isopropyl-1H-benzo[d][1,2,3]triazol-5-yl)-5-(2-methoxyphenyl)-1,2,4-oxadiazole] | – | Screen @ 3 mg/kg sc (% MPE) [1]: >50 % MPE
COc1ccc(-c2noc(-c3ccc4c(c3)nnn4CC(C)(C)O)n2)c(C)c1 [Compound 26, 1-{5-[3-(4-methoxy-2-methylphenyl)-1,2,4-oxadiazol-5-yl]-1H-1,2,3-benzotriazol-1-yl}-2-methylpropan-2-ol] | ≥0.1 | –
CCC1(CC)CC(=O)c2cc(-c3nc(-c4cccnc4)no3)ccc2O1 [Compound 103, 2,2-diethyl-6-[3-(pyridin-3-yl)-1,2,4-oxadiazol-5-yl]-3,4-dihydro-2H-1-benzopyran-4-one] | ≥0.03 | Active Doses in SNL Neuropathy Model (mg/kg) (p < 0.05 compared to SNL + VEH treated mice) MECHANICAL ([3]; mechanical allodynia, manual von Frey): <100 mg/kg; Active Doses in SNL Neuropathy Model (mg/kg) (p < 0.05 compared to SNL + VEH treated mice) THERMAL ([3]; thermal hyperalgesia, paw withdrawal latency): <100 mg/kg; percent tumor growth delay (% TGD), monotherapy ([4]; monotherapy vs control, paclitaxel i.v. qod×5, ozanimod or Compound 103 p.o. qd to end): 15%; study survivors ([4]; n=10 per group, animals surviving the study): One
Cc1ccccc1-c1noc(-c2ccc3c(c2)nnn3C(C)C)n1 [Compound 293, 5-[3-(2-methylphenyl)-1,2,4-oxadiazol-5-yl]-1-(propan-2-yl)-1H-1,2,3-benzotriazole] | ≥0.1 | –
CCC1(CC)CC(=O)c2cc(-c3nc(-c4cn[nH]c4)no3)ccc2O1 [Compound 469, 6-(3-(1H-pyrazol-4-yl)-1,2,4-oxadiazol-5-yl)-2,2-diethylchroman-4-one] | ≥0.01 | –
CCC1(CC)CC(=O)c2cc(-c3nc(-c4ccncc4OC)no3)ccc2O1 [Compound 212, 2,2-diethyl-6-(3-(3-methoxypyridin-4-yl)-1,2,4-oxadiazol-5-yl)chroman-4-one] | ≥0.1 | –

Source: patent US11912693B2, “Compounds for modulating S1P1 activity and methods of using the same” (TREVENA, INC., priority 2017, dated 2024)
